This is an account of results in ChEMBL document CHEMBL4765338, “Simple analogues of natural product chelerythrine: Discovery of a novel anticholinesterase 2-phenylisoquinolin-2-ium scaffold with excellent potency against acetylcholinesterase” (Eur J Med Chem, 2020).

As usually defined, the pIC50 is −log10 of the IC50, conventionally taken in molar units. A lower pIC50 goes with a high IC50.

For one assay, the target named is Acetylcholinesterase (Homo sapiens, UniProt P22303).
The target of another assay is Cholinesterase (Homo sapiens, UniProt P06276).
Assay [1] is described as follows: Cytotoxicity against goat fetal fibroblast cells incubated for 48 hrs by MTT assay. In kind it is cell-based, Fetal fibroblast cell. As to conditions: Capra hircus. Background: Tetrazolium dyes change colour on reduction, which living cells bring about.
For another assay, the system named is N2a. Kind of assay: Cytotoxicity against mouse N2a cells incubated for 48 hrs by MTT assay. In kind it is cell-based.
Assay [2] in a line: Cytotoxicity against porcine fetal kidney cells incubated for 48 hrs by MTT assay. The class given is cell-based. To be noted: Sus scrofa, Fetal kidney cell.

pIC50: −log10 of the molar value. Bounds are passed on as bounds.

Chain of Acetylcholinesterase (P22303 whole entry): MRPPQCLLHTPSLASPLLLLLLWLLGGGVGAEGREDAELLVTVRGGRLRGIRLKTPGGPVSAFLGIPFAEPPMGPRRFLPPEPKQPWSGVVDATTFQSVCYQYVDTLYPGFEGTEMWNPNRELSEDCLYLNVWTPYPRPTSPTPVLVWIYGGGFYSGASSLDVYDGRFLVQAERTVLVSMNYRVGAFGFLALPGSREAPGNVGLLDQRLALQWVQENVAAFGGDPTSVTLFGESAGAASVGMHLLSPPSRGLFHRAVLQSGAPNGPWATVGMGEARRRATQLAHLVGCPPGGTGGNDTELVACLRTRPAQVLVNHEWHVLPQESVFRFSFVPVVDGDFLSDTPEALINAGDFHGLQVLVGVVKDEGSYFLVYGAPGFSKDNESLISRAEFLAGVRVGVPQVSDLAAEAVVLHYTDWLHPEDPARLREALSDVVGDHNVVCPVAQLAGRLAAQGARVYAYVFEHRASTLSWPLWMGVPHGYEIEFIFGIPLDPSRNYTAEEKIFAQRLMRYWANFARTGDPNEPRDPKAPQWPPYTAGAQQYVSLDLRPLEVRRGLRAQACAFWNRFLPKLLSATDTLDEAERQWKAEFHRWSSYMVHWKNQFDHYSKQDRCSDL
Chain of Cholinesterase (P06276 whole entry): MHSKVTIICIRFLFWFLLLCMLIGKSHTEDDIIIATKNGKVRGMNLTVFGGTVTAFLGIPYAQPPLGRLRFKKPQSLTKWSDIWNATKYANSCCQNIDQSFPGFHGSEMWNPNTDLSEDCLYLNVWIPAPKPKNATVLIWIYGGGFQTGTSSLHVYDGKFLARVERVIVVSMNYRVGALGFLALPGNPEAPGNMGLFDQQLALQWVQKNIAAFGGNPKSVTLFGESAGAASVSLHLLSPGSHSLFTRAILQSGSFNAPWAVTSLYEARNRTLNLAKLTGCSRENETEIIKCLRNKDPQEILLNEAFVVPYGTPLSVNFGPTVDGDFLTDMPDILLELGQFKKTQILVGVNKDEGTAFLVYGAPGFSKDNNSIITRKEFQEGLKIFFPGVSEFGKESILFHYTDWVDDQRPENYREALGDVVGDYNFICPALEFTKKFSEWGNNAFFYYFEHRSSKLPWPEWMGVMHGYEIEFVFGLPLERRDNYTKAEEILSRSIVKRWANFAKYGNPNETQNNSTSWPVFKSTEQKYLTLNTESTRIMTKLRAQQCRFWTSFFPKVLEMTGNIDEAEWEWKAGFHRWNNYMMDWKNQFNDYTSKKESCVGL
Description for Acetylcholinesterase: Inhibition of AChE (unknown origin) preincubated for 30 mins followed by substrate addition acetylthiocholineiodide measured after 40 mins by Ellman's method

As for `COc1cccc2c1C=[N+](c1ccccc1Br)CC2`, the pIC50 against Acetylcholinesterase was 5.82; against Cholinesterase it was 4.57.

At Acetylcholinesterase, `COc1cccc2c1C=[N+](c1ccccc1C#N)CC2` had a pIC50 of under 5.00.

For `COc1cccc2c1C=[N+](c1ccc(F)cc1)CC2`, the pIC50 against Acetylcholinesterase was 5.70; on Cholinesterase, 3.95.

As for `COc1cccc2c1C=[N+](c1cccc(F)c1)CC2`, the pIC50 at Acetylcholinesterase was under 5.00.

For the compound `COc1cccc2c1C=[N+](c1cccc(I)c1)CC2`, at Acetylcholinesterase, the pIC50 was under 5.00.

For `COc1cccc2c1C=[N+](c1ccccc1C)CC2`, the values for the pIC50 at Acetylcholinesterase and against Cholinesterase were 5.51 and 3.88, respectively.

For the compound `COc1cccc2c1C=[N+](c1cccc(Cl)c1)CC2`, the pIC50 on Acetylcholinesterase was under 5.00.

Turning to `COc1cccc2c1C=[N+](c1ccc(I)cc1F)CC2`, the figures for the pIC50 against Acetylcholinesterase and against Cholinesterase were 5.97 and 3.89, respectively.

As to `COc1cccc2c1C=[N+](c1ccc(C#N)cc1)CC2`, the pIC50 against Acetylcholinesterase is under 5.00.

For the compound `COc1cccc([N+]2=Cc3c(cccc3OC)CC2)c1`, the pIC50 against Acetylcholinesterase is 5.28; at Cholinesterase, 4.11.

As to `COc1cccc2c1C=[N+](c1ccccc1C(F)(F)F)CC2`, the pIC50 against Acetylcholinesterase is under 5.00.

Consider `COc1cccc2c1C=[N+](c1ccc(Cl)cc1)CC2`, for which the results for the pIC50 on Acetylcholinesterase and at Cholinesterase were 6.49 and 4.21, respectively.

For the compound `COc1cccc2c1C=[N+](c1ccc(C(F)(F)F)cc1)CC2`, the negative logarithm of the IC50 (pIC50) at Acetylcholinesterase is 5.71; against Cholinesterase it was 3.66.

`COc1cccc2c1C=[N+](c1cccc(Br)c1)CC2` showed a pIC50 at Acetylcholinesterase of under 5.00.

On to `COc1cccc2c1C=[N+](c1cccc(C#N)c1)CC2`, for which the results for the pIC50 against Acetylcholinesterase and against Cholinesterase were 5.29 and 3.96, respectively.

Regarding `COc1cccc2c1C=[N+](c1ccc(Cl)cc1Cl)CC2`, the pIC50 is 5.98 against Acetylcholinesterase and 4.04 against Cholinesterase.

As to `COc1ccc([N+]2=Cc3c(cccc3OC)CC2)cc1`, the pIC50 against Acetylcholinesterase is 5.98; against Cholinesterase it was 3.95; in assay [1] it was 4.56; in the assay with N2a it was 4.58; in assay [2] it was 4.62.

Turning to `COc1cccc2c1C=[N+](c1ccccc1I)CC2`, the pIC50 is 5.75 against Acetylcholinesterase and 4.54 against Cholinesterase.

Consider `COc1cccc2c1C=[N+](c1ccc(I)cc1)CC2`, for which the pIC50 at Acetylcholinesterase is 6.00; on Cholinesterase, 4.24.

As to `COc1cccc2c1C=[N+](c1ccccc1F)CC2`, the pIC50 was 5.53 against Acetylcholinesterase and 4.12 at Cholinesterase.

Regarding `COc1cccc2c1C=[N+](c1cccc(C(F)(F)F)c1)CC2`, at Acetylcholinesterase, the pIC50 is under 5.00.

As for `COc1cccc2c1C=[N+](c1cc(Cl)cc(Cl)c1)CC2`, at Acetylcholinesterase, the negative logarithm of the IC50 (pIC50) is under 5.00.

For `COc1cccc2c1C=[N+](c1ccc(C)cc1)CC2`, the figures for the pIC50 on Acetylcholinesterase and at Cholinesterase were 6.28 and 4.33, respectively.

With `COc1cccc2c1C=[N+](c1ccccc1)CC2`, the pIC50 is 5.79 against Acetylcholinesterase and 4.45 at Cholinesterase.

For the compound `COc1cccc2c1C=[N+](c1ccccc1Cl)CC2`, the pIC50 on Acetylcholinesterase was under 5.00; on Cholinesterase, 3.72.

`COc1cccc2c1C=[N+](c1cccc(C)c1)CC2`: the pIC50 against Acetylcholinesterase was 5.54; against Cholinesterase it was 4.44.

For `COc1cccc2c1C=[N+](c1ccc(Br)cc1F)CC2`, the pIC50 is 5.89 against Acetylcholinesterase and 4.16 against Cholinesterase.

With `COc1cccc2c1C=[N+](c1c(F)cccc1F)CC2`, the pIC50 against Acetylcholinesterase was 5.89; against Cholinesterase, 3.98.

Turning to `COc1cccc2c1C=[N+](c1ccc(Br)cc1Br)CC2`, the pIC50 against Acetylcholinesterase was 5.43; against Cholinesterase, 3.94; in assay [1], 5.21; in the assay with N2a, 5.37; in assay [2], 5.22.

`COc1cccc2c1C=[N+](c1ccc(Br)cc1)CC2`: the pIC50 is 6.55 on Acetylcholinesterase; 4.68 at Cholinesterase; 4.69 in assay [1]; 4.69 in the assay with N2a; 4.72 in assay [2].

In the case of `COc1ccccc1[N+]1=Cc2c(cccc2OC)CC1`, on Acetylcholinesterase, the pIC50 is under 5.00.

As to `C[n+]1cc2c3c(ccc2c2ccc4cc5c(cc4c21)OCO5)OCO3`, the pIC50 was 5.91 on Acetylcholinesterase and 5.15 against Cholinesterase.

Regarding `COc1cccc2cc[n+](-c3ccccc3F)cc12`, the pIC50 was 5.59 against Acetylcholinesterase and 4.09 against Cholinesterase.

As to `COc1cccc2cc[n+](-c3ccc(Br)cc3F)cc12`, the pIC50 at Acetylcholinesterase is 6.05; against Cholinesterase it was 3.71.

Take `COc1cccc2cc[n+](-c3ccccc3I)cc12`: the negative logarithm of the IC50 (pIC50) is 5.69 on Acetylcholinesterase and 4.43 at Cholinesterase.

On to `Brc1ccc([N+]2=Cc3ccccc3CC2)cc1`, for which the pIC50 at Acetylcholinesterase is 4.98; at Cholinesterase, 4.20.

For the compound `COc1cccc2cc[n+](-c3ccc(Cl)cc3)cc12`, the pIC50 is 6.77 against Acetylcholinesterase and 3.98 against Cholinesterase.

As to `COc1cccc2cc[n+](-c3ccccc3C(F)(F)F)cc12`, the pIC50 against Acetylcholinesterase was under 5.00.

`COc1cccc2cc[n+](-c3cccc(I)c3)cc12` showed a pIC50 at Acetylcholinesterase of under 5.00.

Regarding `COc1cccc2cc[n+](-c3cccc(C)c3)cc12`, the values for the pIC50 on Acetylcholinesterase and against Cholinesterase were 5.66 and 4.51, respectively.

For the compound `COc1cccc(-[n+]2ccc3cccc(OC)c3c2)c1`, the pIC50 was 5.16 against Acetylcholinesterase and 4.01 against Cholinesterase.

Turning to `COc1cccc2cc[n+](-c3cccc(C#N)c3)cc12`, the figures for the pIC50 at Acetylcholinesterase and against Cholinesterase were 5.47 and under 3.60, respectively.

Consider `COc1ccccc1-[n+]1ccc2cccc(OC)c2c1`, for which the pIC50 on Acetylcholinesterase is under 5.00.

Regarding `COc1cccc2cc[n+](-c3ccccc3C#N)cc12`, the pIC50 against Acetylcholinesterase was 5.76; against Cholinesterase, 4.23.

In the case of `COc1cccc2cc[n+](-c3ccc(Cl)cc3Cl)cc12`, the results for the pIC50 against Acetylcholinesterase and at Cholinesterase were 5.47 and 3.63, respectively.

Consider `COc1cccc2cc[n+](-c3ccccc3Cl)cc12`, for which the pIC50 on Acetylcholinesterase is 5.27; against Cholinesterase, 4.17.

For the compound `COc1cccc2cc[n+](-c3c(F)cccc3F)cc12`, the pIC50 against Acetylcholinesterase is 5.57; at Cholinesterase, 4.32.

As for `COc1cccc2cc[n+](-c3cccc(Cl)c3)cc12`, the pIC50 at Acetylcholinesterase is 5.02; against Cholinesterase, 4.44.

In the case of `COc1cccc2cc[n+](-c3ccc(Br)cc3)cc12`, the pIC50 against Acetylcholinesterase is 6.72; against Cholinesterase it was 4.67; in assay [1] it was under 4.30; with N2a it was 4.68; in assay [2], 4.70.

As for `COc1cccc2cc[n+](-c3ccccc3)cc12`, the pIC50 is 5.85 against Acetylcholinesterase and 4.10 against Cholinesterase.

Regarding `COc1cccc2cc[n+](-c3ccc(Br)cc3Br)cc12`, the pIC50 was 6.24 against Acetylcholinesterase; 3.88 against Cholinesterase; under 4.30 in assay [1]; under 4.30 in the assay with N2a; under 4.30 in assay [2].

On to `COc1cccc2cc[n+](-c3ccc(I)cc3F)cc12`, for which the results for the pIC50 at Acetylcholinesterase and against Cholinesterase were 5.91 and 4.05, respectively.

In the case of `COc1cccc2cc[n+](-c3cccc(Br)c3)cc12`, the pIC50 at Acetylcholinesterase is under 5.00.

Consider `COc1cccc2cc[n+](-c3ccc(I)cc3)cc12`, for which the figures for the pIC50 at Acetylcholinesterase and against Cholinesterase were 6.14 and 4.44, respectively.

On to `COc1cccc2cc[n+](-c3cccc(F)c3)cc12`, for which the pIC50 against Acetylcholinesterase is 5.04; at Cholinesterase, under 3.60.

`COc1cccc2cc[n+](-c3ccc(C#N)cc3)cc12` had a pIC50 against Acetylcholinesterase of under 5.00.

`COc1cccc2cc[n+](-c3ccccc3Br)cc12`: the figures for the pIC50 against Acetylcholinesterase and at Cholinesterase were 5.28 and 4.05, respectively.

For `Brc1ccc(-[n+]2ccc3ccccc3c2)cc1`, the pIC50 against Acetylcholinesterase is 5.62; against Cholinesterase it was 3.89.

Turning to `COc1cccc2cc[n+](-c3ccc(F)cc3)cc12`, the pIC50 on Acetylcholinesterase was 6.17; at Cholinesterase it was 3.84.

Turning to `COc1cccc2cc[n+](-c3cccc(C(F)(F)F)c3)cc12`, at Acetylcholinesterase, the pIC50 is under 5.00.

For `COc1ccc(-[n+]2ccc3cccc(OC)c3c2)cc1`, the pIC50 is 6.85 on Acetylcholinesterase; 5.42 against Cholinesterase; under 4.30 in assay [1]; under 4.30 with N2a; under 4.30 in assay [2].

Turning to `COc1cccc2cc[n+](-c3cc(Cl)cc(Cl)c3)cc12`, on Acetylcholinesterase, the pIC50 is under 5.00.

In the case of `COc1cccc2cc[n+](-c3ccccc3C)cc12`, the pIC50 is 5.54 on Acetylcholinesterase and 3.61 against Cholinesterase.

`COc1cccc2cc[n+](-c3ccc(C(F)(F)F)cc3)cc12`: the results for the pIC50 against Acetylcholinesterase and against Cholinesterase were 6.16 and 4.47, respectively.

Consider `COc1cccc2cc[n+](-c3ccc(C)cc3)cc12`, for which the pIC50 at Acetylcholinesterase is 5.97; on Cholinesterase, under 3.60.

For `COc1ccc2c(c[n+](C)c3c4cc5c(cc4ccc23)OCO5)c1OC` [CHELERYTHRINE], the figures for the pIC50 on Acetylcholinesterase and against Cholinesterase were 5.84 and 5.07, respectively.
